Laboratory results: publication PMC4551797 (PLoS ONE, 2015)

Legend:
[1] = tested on: C57BL/6 mice; assay: Oral glucose tolerance test with hormone measurement; format: in vivo, mouse; conditions: 10 mg/kg oral, glucose 3 g/kg, 1 hour
Experimental: For measurement of glucose only, overnight-fasted C57BL/6 mice in a normal light cycle were orally dosed with vehicle or compound, followed by an oral bolus of 3 g/kg glucose at 15 minutes post compound. At 0, 20, 40, 60, and 120 minutes post glucose dose, blood glucose was assessed via glucometers. Resulting raw data was used to generate AUCs. For measurement of hormones and glucose, overnight-fasted C57BL/6 mice acclimated for two weeks to a reverse light cycle were orally dosed with vehicle or compound, followed by an oral bolus of 3 g/kg glucose at 15 minutes post compound. At 0, 2, 5, 10, 20, 40, and 60 minutes post glucose dose, blood glucose was assessed via glucometers, followed immediately by collection of plasma for active GLP-1 (Mesoscale Discovery), insulin (Mesoscale Discovery), and total PYY. Glucose tolerance tests in diet-induced obese (DIO) C57BL/6 mice were performed in overnight-fasted animals dosed either acutely or after 2-week administration with vehicle or compound 18 at 60 mg/kg, followed 30 minutes post compound by an oral bolus of 2 g/kg glucose. At 0, 15, 30, 60, and 120 minutes post glucose dose, blood glucose was assessed via glucometers. Resulting raw data was used to generate AUCs.
To evaluate glucose, insulin, GLP-1, and PYY levels throughout the OGTT, each time-point consisted of a separate group of mice that were used to record glucose by use of a glucometer followed by terminal bleeds for measurement of active GLP-1, total PYY, and insulin. AUCs were then calculated for the entire hour of the OGTT. […] Changes in insulin AUCs were not increased with treatment of either sitagliptin or compound 18, likely due to the lower glucose levels reducing the drive for glucose-stimulated insulin secretion (Fig 5D).
Fig 5 Compound 18 increases GLP-1 and PYY and lowers the glucose and insulin excursions as compared to sitagliptin in an OGTT in C57BL/6 mice. […] Plasma was analyzed for active GLP-1 (A), total PYY (B), and insulin (D), while blood glucose was measured by glucometers (C).

[2] = Plasma compound levels after oral dosing (LC-MS/MS); conditions: C57BL/6, mouse, 100 mg/kg
[3] = tested on: C57BL/6 mice; assay: Acute in vivo incretin secretion assay (plasma GLP-1 and PYY AUC); conditions: 100 mg/kg oral, fasted mice, 3-hour time course
Description: Plasma was separated by centrifugation, aliquoted, and analyzed for GLP-1 (X-36) amide (Mesoscale Discovery) and total PYY (Millipore). Resulting raw data was used to generate area under the curve analyses (AUCs).

[4] = tested on: C57BL/6 mice; assay: Three-day study on GLP-1 and gallbladder filling (bile weight); format: in vivo, mouse; conditions: 100 mg/kg oral BID 3 days, 30 min after last dose
Experimental: C57BL/6 mice, Tgr5 KO mice, or their wild-type littermate controls were orally dosed with vehicle or compounds twice per day for 3 days, with overnight fasting performed on the evening of day 2. On the morning of day 3, animals were dosed orally with compounds and then euthanized by CO2 asphyxiation at 30 minutes after the fifth dose. Plasma was collected for analysis of GLP-1 (X-36) amide as mentioned above, followed immediately by incision into the abdominal cavity to remove and weigh bile from the gallbladder.
On the third day, compound was dosed in the morning followed 30 minutes later by measurement of bile filling (A) by use of a needle and syringe and GLP-1 (x-36) amide (B) by cardiac puncture.

[5] = tested on: C57BL/6 mice; assay: Oral glucose tolerance test, glucose only; conditions: 100 mg/kg oral, glucose 3 g/kg 15 min after compound
Experimental: For measurement of glucose only, overnight-fasted C57BL/6 mice in a normal light cycle were orally dosed with vehicle or compound, followed by an oral bolus of 3 g/kg glucose at 15 minutes post compound. At 0, 20, 40, 60, and 120 minutes post glucose dose, blood glucose was assessed via glucometers. Resulting raw data was used to generate AUCs. […] At 0, 15, 30, 60, and 120 minutes post glucose dose, blood glucose was assessed via glucometers. Resulting raw data was used to generate AUCs.

[6] = tested on: gallbladder; conditions: cited from earlier work

With `N[C@@H](CC(=O)N1CCn2c(nnc2C(F)(F)F)C1)Cc1cc(F)c(F)cc1F` [sitagliptin, reference compound] the “insulin AUC during OGTT” value [1] was “not increased”.

For `CC[C@H]1[C@@H](O)[C@@H]2[C@H](C[C@H](O)[C@]3(C)[C@@H]([C@H](C)C[C@H](C)C(=O)O)CC[C@@H]23)[C@@]2(C)CC[C@@H](O)C[C@@H]12` [INT-777, 6α-ethyl-23(S)-methylcholic acid, reference compound], the AUC(0-t) [2] was 264 µM·h, the Cmax [2] was 136 µM and the Tmax [2] was 1.5 h. For the same compound, the “GLP-1 AUC increase over vehicle” value [3] was 2.8 fold over vehicle, the “PYY AUC increase over vehicle” value [3] was 1.6 fold over vehicle and the “bile weight (gallbladder filling)” value [4] was “significant increase in bile weight”. For the same compound, the “plasma GLP-1 levels” value [4] was “no detectable increase in GLP-1”, the “effect on glucose tolerance in OGTT” value [5] was “no detectable improvement of glucose tolerance” and the “gallbladder filling with bile” value [6] was “stimulated gallbladder filling with bile”.
